Laboratory results as given in US8663703B2, “Drug microparticles, processes of preparing them and a drug delivery vehicle comprising them” (Teva Pharmaceutical Industries, Ltd., priority 2002, dated 2014).

Experiment: Solubility of selected drugs in menthol melt
Format: physicochemical
Experimental: The following general procedure was repeated with several drugs with menthol carrier.
Menthol (10 grams) was melted on a stirring hot plate with magnetic stirring, then heated to the desired temperature indicated in Table 1. The desired drug was added in small increments (0.1 grams) and stirred to obtain a clear solution. The desired drug was added in increments until no more drug dissolved in the menthol.

CCC(C)n1ncn(-c2ccc(N3CCN(c4ccc(OCC5COC(Cn6cncn6)(c6ccc(Cl)cc6Cl)O5)cc4)CC3)cc2)c1=O (stereo not shown) [Itraconazole]
Solubility in menthol (in menthol at 60° C. (text of Example 6)): 1%
Solubility in menthol (menthol melt, 61 °C): 1.0 % w/w

O=C(O)c1ccccc1O [Salicylic acid]
Solubility in menthol (menthol melt, 43 °C): 16.0 % w/w

CC[C@H]1OC(=O)[C@H](C)[C@@H](O[C@H]2C[C@@](C)(OC)[C@@H](O)[C@H](C)O2)[C@H](C)[C@@H](O[C@@H]2O[C@H](C)C[C@H](N(C)C)[C@H]2O)[C@](C)(O)C[C@@H](C)CN(C)[C@H](C)[C@@H](O)[C@]1(C)O [Azithromycin]
Solubility in menthol (menthol melt, 63 °C): 40.0 % w/w
